Experimental data reported in patent publication US20260217701A1, “SELECTIVE BET INHIBITORS AND USES THEREOF” (Tay Therapeutics Limited, priority 2022, published 2026).
Read-outs that look alike come from different tables or passages of the source.

Columns and labels:
[1] = Rat PK study #1 (Compound A PO, methylcellulose vs propylene glycol formulation); type: in vivo, Lewis rats; settings: male, rat, plasma, Lewis rats, PO 10 mg/kg; for concentration at 2 h / concentration at 4 h / concentration at 8 h / concentration at 24 h / AUC(0-t) / Tmax / Cmax / concentration at 0.083 h / concentration at 0.25 h / concentration at 0.5 h / concentration at 1 h: Lewis, po, 10 mg/kg; for Cmax: read-out: Cmax
Experimental: For the first rat pharmacokinetic study, the pharmacokinetics of Compound A were assessed in male Lewis rats. Compound A was prepared in two different formulations (1% methylcellulose and 20% propylene glycol/20% Vitamin E/60% water) according to Table 3A (see Tables 2A and 2D for formulations). The formulations were made fresh prior to use. Animals were divided into two groups based on the compound formulation (n=3/group). The Compound A solutions were administered to animals orally (PO) and animals were then monitored over a 24 h period.
Blood samples (~0.2 mL) were collected according to a schedule (0.083, 0.25, 0.5, 1, 2, 4, 8, and 24 h following the initial dosing) via the jugular vein by cannulation and EDTA-K2 was used as anticoagulant. Within 30 minutes of collection, the samples were centrifuged at approximately 4000 times g-force for 5 minutes at 4° C. to obtain blood plasma. The plasma samples were immediately divided into two aliquots (~75 μL each), transferred to a cryogenic vial, and stored in a freezer at −75±15° C. prior to analysis.
The concentration of Compound A in plasma samples was determined by liquid chromatography-mass spectrometry (LC-MS/MS) using a Shimadzu HPLC (DGU-20A5R; LC-30AD; SIL-30AC; Rack changer II; CTO-31A; and CBM-20A) and an AB API 5500 LC/MS/MS instrument. Samples were analyzed on an Agilent Poroshell 120 EC-C18 4 μm (50×2.1 mm) column. Solution A in the mobile phase was 95% water (0.1% formic acid) and solution B was 95% acetonitrile in water (0.1% formic acid), injection volume was 3 μL, and flow rate was 0.6 mL/min.
To prepare samples for analysis, serial concentrations were prepared by diluting the stock solution of analyte with a 50% acetonitrile in water solution. 5 μL working solutions (5, 10, 20, 50, 100, 500, 1000, 5000, and 10000 ng/ml) were added to 50 μL of the blank Lewis rat plasma to achieve calibration standards of ~0.5 to 1000 ng/ml (0.5, 1, 2, 5, 10, 50, 100, 500, and 1000 ng/ml) in a total volume of 55 μL. Five quality control samples at 1 ng/ml, 2 ng/ml, 5 ng/mL, 50 ng/mL, and 800 ng/mL for plasma were prepared independently of those used for the calibration curves. These QC samples were prepared on the day of analysis in the same way as calibration standards.
55 μL of standards, 55 μL of QC samples and 55 μL of unknown samples (50 μL of unknown rat plasma with 5 μL of blank solution) were added to 200 μL of acetonitrile containing internal standard (IS; verapamil) mixture for precipitating protein respectively. The samples were then vortexed for 30 s. After centrifugation at 4° C., 3900 rpm for 15 min, the supernatant was diluted 3 times with water. 3 μL of diluted supernatant was injected into the LC/MS/MS system for quantitative analysis.

[2] = Pharmacokinetics of Compound A in the CIA study (groups 8 and 9); type: in vivo; settings: Lewis rats
Experimental: (§1) Blood samples were collected from animals in group 8 on Day 0, and blood samples were collected from group 9 on Day 20. Blood samples from group 8 and group 9 were collected at 0.25, 0.5, 1, 2, 4, 8, 10, 12, 13, and 24-hours following morning administration of their first dose of the compound. The second dose of the compound was administered after the 8-hour collection timepoint. All blood samples were collected at the eye socket and put into tubes containing EDTA-K2 as an anticoagulant and centrifuged at 4° C. at 4,000 g for 5 minutes. Plasma was transferred to a separate tube and stored at −75+15° C. for PK analysis. Pharmacokinetic analyses for Compound A in Lewis rats were performed as described in Experimental Method B.
as §1, with “−75±15°” for “−75+15°”, “Pharmacokinetic analyses for Compound A in Lewis rats were performed as described in Experimental Method B.” left out

[3] = 1% methylcellulose formulation, mean of 3 animals
[4] = 1% methylcellulose formulation, individual animals
[5] = propylene glycol/Vitamin E TPGS/water formulation, individual animals
[6] = propylene glycol/Vitamin E TPGS/water formulation, mean of 3 animals

## Cn1cc(-c2ccccc2)c(-c2cn(C)c(=O)c3[nH]c(-c4cnn(C(F)(F)F)c4)cc23)cc1=O [Compound A, 6-methyl-4-(1-methyl-2-oxo-5-phenyl-1,2-dihydropyridin-4-yl)-2-(1-(trifluoromethyl)-1H-pyrazol-4-yl)-1,6-dihydro-7H-pyrrolo[2,3-c]pyridin-7-one]
[1]; [3]
  concentration at 2 h: 23.3 ng/mL
  concentration at 4 h: 44.6 ng/mL
  concentration at 8 h: 49.1 ng/mL
  concentration at 24 h: 2.77 ng/mL
  AUC(0-t): 694 ng·h/mL
  Tmax: 6.67 h
  Cmax: 53.1 ng/mL
[1]; [4]
  concentration at 4 h: 41.5 ng/mL
  AUC(0-t): 480 ng·h/mL
  Tmax: 4 h
  Cmax: 41.5 ng/mL
[1]; [5]
  concentration at 0.083 h: 4.79 ng/mL
  concentration at 0.25 h: 44.5 ng/mL
  concentration at 0.5 h: 125 ng/mL
  concentration at 1 h: 277 ng/mL
  concentration at 2 h: 390 ng/mL
  concentration at 4 h: 445 ng/mL
  concentration at 8 h: 266 ng/mL
  concentration at 24 h: 13.1 ng/mL
  AUC(0-t): 4950 ng·h/mL
  Tmax: 4 h
  Cmax: 445 ng/mL
  AUC(0-inf): 3510 ng·h/mL
  half-life: 4.33 h
[1]; [6]
  concentration at 0.083 h: 4.29 ng/mL
  concentration at 0.25 h: 43.8 ng/mL
  concentration at 0.5 h: 131 ng/mL
  concentration at 1 h: 268 ng/mL
  concentration at 2 h: 396 ng/mL
  concentration at 4 h: 399 ng/mL
  concentration at 8 h: 189 ng/mL
  concentration at 24 h: 12.7 ng/mL
  AUC(0-t): 4040 ng·h/mL
  Tmax: 3.33 h
  Cmax: 419 ng/mL
[1]; propylene glycol/Vitamin E TPGS/water formulation, individual animals, read-out: MRTInf_obs
  MRT inf: 6.39 h
[2]
  period of increasing plasma concentration after oral administration: approximately the first four hours
